Measurements from the supplement of paper PMC5579334.

Key:
[1] = test system: HSC2; assay: relative IC50 (inflection point of fitted dose-response curve, CellTiter-Glo viability, 72 h; top asymptote may be below 50% inhibition); higher = less potent
How it was run: (§1)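 For this screen, 384-well plates were preprinted with each compound at five concentrations in 10-fold steps and seeded with MPNST cell lines or primary human Schwann cells at 750–1000 cells per well. Incubation lasted 72 h at 37 °C, 5% CO2, and CellTiter-Glo ATP luminescence, scaled between vehicle and positive-control wells and averaged over duplicates where available, served as viability. Logistic fits with four parameters were applied. Relative IC50 (censored at the top concentration) and drug sensitivity score derive from these fits, and percent inhibition is at the top concentration.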

[2] = test system: YST-1; assay: as above
How it was run: as §1

[3] = test system: HSC1; assay: as above
How it was run: as §1

[4] = test system: STS26T; assay: as above
How it was run: as §1

[5] = test system: S462; assay: as above
How it was run: as §1

[6] = test system: HS-Sch-2; assay: as above
How it was run: as §1

[7] = test system: HS-PSS; assay: as above
How it was run: as §1

[8] = test system: ST8814; assay: as above
How it was run: as §1

[9] = test system: HSC2; assay: relative IC50 (inflection point of fitted dose-response curve, CellTox-Green cytotoxicity, 72 h; top asymptote may be below 50%); higher = less potent
How it was run: (§2)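 MPNST cell lines and primary human Schwann cells were grown for 72 h at 37 °C in 384-well plates containing five 10-fold compound dilutions. CellTox-Green, added before seeding at a final 1:1000 dilution, gave fluorescence from DNA released by disrupted cells, and signals were scaled to vehicle and positive-control wells. Curves were fitted with a four-parameter logistic model. Drug sensitivity score and relative IC50 come from these fits, with IC50 censored at the top concentration.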

[10] = test system: S1507-2; assay: as above
How it was run: as §2

[11] = test system: HSC1; assay: as above
How it was run: as §2

[12] = test system: STS26T; assay: as above
How it was run: as §2

[13] = test system: HS-PSS; assay: as above
How it was run: as §2

[14] = test system: ST8814; assay: as above
How it was run: as §2

[15] = test system: S1507-2; assay: relative IC50 (inflection point of fitted dose-response curve, CellTiter-Glo viability, 72 h; top asymptote may be below 50% inhibition); higher = less potent
How it was run: as §1

| SMILES | relative IC50 [1] [µM] | relative IC50 [2] [µM] | relative IC50 [3] [µM] | relative IC50 [4] [µM] | relative IC50 [5] [µM] | relative IC50 [6] [µM] | relative IC50 [7] [µM] | relative IC50 [8] [µM] | relative IC50 [9] [µM] | relative IC50 [10] [µM] | relative IC50 [11] [µM] | relative IC50 [12] [µM] | relative IC50 [13] [µM] | relative IC50 [14] [µM] | relative IC50 [15] [µM] |
| --- | --- | --- | --- | --- | --- | --- | --- | --- | --- | --- | --- | --- | --- | --- | --- |
| C#Cc1cccc(Nc2ncnc3cc(OCCOC)c(OCCOC)cc23)c1 [Erlotinib] | 2.31 | 1.47 | 2.36 | 2.06 | 2.31 | 1.55 | 2.1 | 3.13 | > 10 | > 10 | > 10 | > 10 | > 10 | > 10 | – |
| CC(C)(C)c1nc(-c2cccc(NS(=O)(=O)c3c(F)cccc3F)c2F)c(-c2ccnc(N)n2)s1 [Dabrafenib] | 0.0633 | – | 0.22 | 0.0728 | 0.668 | – | 1 | 0.968 | > 2.5 | > 2.5 | > 2.5 | > 2.5 | > 2.5 | > 2.5 | – |
| COc1cc2c(N3CCN(C(=O)Nc4ccc(OC(C)C)cc4)CC3)ncnc2cc1OCCCN1CCCCC1 [Tandutinib] | > 1 | > 1 | > 1 | > 1 | > 1 | > 1 | – | > 1 | > 1 | > 1 | > 1 | > 1 | > 1 | > 1 | – |
| CCS(=O)(=O)c1cccc(-c2cc(C(=O)NC3CCN(C)CC3)c(C)c3[nH]c4ncc(C)cc4c23)c1 [TAK-901] | 0.0725 | 0.0633 | 0.111 | 0.112 | 0.122 | 0.327 | 0.15 | 0.267 | 0.183 | > 1 | – | 0.0623 | > 1 | 0.134 | – |
| CC(C)NC[C@@H](C(=O)N1CCN(c2ncnc3c2[C@H](C)C[C@H]3O)CC1)c1ccc(Cl)cc1 [GDC-0068] | > 10 | – | – | 0.544 | – | – | – | – | > 10 | > 10 | – | > 10 | – | > 10 | 2.06 |
| C[C@]12C=CC(=O)C=C1CC[C@@H]1[C@@H]2[C@@H](O)C[C@@]2(C)[C@H]1CC[C@]2(O)C(=O)CO [Prednisolone] | > 10 | – | > 10 | > 10 | > 10 | > 10 | > 10 | – | > 10 | > 10 | > 10 | > 10 | > 10 | > 10 | – |
| CC(C)(C)c1cc(NC(=O)Nc2ccc(-c3cn4c(n3)sc3cc(OCCN5CCOCC5)ccc34)cc2)no1 [Quizartinib] | 0.402 | 0.153 | 0.197 | – | 0.179 | – | > 1 | – | > 1 | > 1 | > 1 | > 1 | > 1 | > 1 | – |
| COC(=O)c1ccc2c(c1)NC(=O)/C2=C(\Nc1ccc(N(C)C(=O)CN2CCN(C)CC2)cc1)c1ccccc1 [Nintedanib] | > 10 | 1.12 | > 10 | > 10 | > 10 | 3.71 | 3.97 | > 10 | > 10 | > 10 | > 10 | > 10 | – | > 10 | – |
